The source of these data is ChEMBL document CHEMBL1201862, “PubChem BioAssay data set” (2004).

Among the test systems are NCI-H226; UACC-62; SF-295; UACC-257; SR; SK-OV-3; NCI-H23; OVCAR-5; SK-MEL-2; CAKI-1; RXF 393; SN12C; TK-10; DU-145; SK-MEL-28; 786-0; SF-539; MDA-MB-231; HCT-15; Malme-3M.
Common to all, as to assay: NCI tumour cell line growth inhibition, 48 h

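48-hour exposure; five concentrations; linearly interpolated endpoints. Abbreviation: GI50, concentration required for 50% inhibition of growth.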 The source made the active and inactive calls. No stated cut-off is given here; in the data, active = GI50 up to about 1.1 µM and inactive = higher.

In the case of `COc1ccccc1/C=C1\S/C(=N/Nc2nc(C)c(C(C)=O)s2)NC1=O`, the GI50 in the test with NCI-H226 is 5.3 µM (inactive); in the test on UACC-62, 36.4 µM (inactive); with SF-295 it was 51.5 µM (inactive); with UACC-257 it was 49.8 µM (inactive); in the test with SR, 31 µM (inactive); with SK-OV-3, 74.1 µM (inactive). The GI50 is 42.1 µM (inactive) in the test with NCI-H23; 83 µM (inactive) in the test with OVCAR-5; 64.1 µM (inactive) with SK-MEL-2; 57.3 µM (inactive) in the test on CAKI-1; 69 µM (inactive) in the test on RXF 393; 65.9 µM (inactive) in the test with SN12C. Moreover, the GI50 in the test with TK-10 was 40.6 µM (inactive); in the test on DU-145 it was 69.7 µM (inactive); with SK-MEL-28, 40.6 µM (inactive); in the test on 786-0, 29.4 µM (inactive); in the test on SF-539, 44.1 µM (inactive); in the test on MDA-MB-231, 22.8 µM (inactive).
In the case of `CC(=O)N(CCCCNC(=O)C(F)(F)F)CCCNC(=O)C(F)(F)F`, the GI50 in the test on NCI-H226 is > 100 µM (inactive); in the test with HCT-15, more than 100 µM; with UACC-62, > 100 µM (inactive); in the test on SF-295 it was > 100 µM (inactive); in the test with UACC-257 it was > 100 µM (inactive); in the test with SR, > 100 µM (inactive). Further, the GI50 in the test on SK-OV-3, in the test on NCI-H23, with OVCAR-5, in the test with SK-MEL-2, in the test with RXF 393 and in the test with SN12C was > 100 µM (inactive) in each case. Besides, the GI50 with TK-10, with DU-145, in the test with SK-MEL-28, in the test with 786-0, in the test on SF-539 and with MDA-MB-231 was > 100 µM (inactive) in each case.
Regarding `Cc1cc2c(cc1Cl)Sc1nnc(Nc3ccccc3)n1S2(=O)=O`, the GI50 in the test on NCI-H226 is 3.08 µM (inactive); in the test on HCT-15 it was 5.07 µM; with SF-295, 13.3 µM (inactive); with UACC-257, 16.6 µM (inactive); with SR, 2.59 µM (inactive); in the test on NCI-H23, 3.59 µM (inactive). The GI50 with OVCAR-5 is 31.9 µM (inactive); in the test with SK-MEL-2, 4.84 µM (inactive); with CAKI-1, 11.1 µM (inactive); in the test with RXF 393, 5.26 µM (inactive); in the test on TK-10 it was 17.8 µM (inactive); with DU-145, 18.2 µM (inactive). Besides, the GI50 with SK-MEL-28 was 15.8 µM (inactive); with 786-0 it was 4.75 µM (inactive); with SF-539 it was 2.39 µM (inactive); in the test on MDA-MB-231 it was 11.7 µM (inactive).
Turning to `Cc1cc2c(c(C(=O)NCCC(=O)N[C@@H](C)C(=O)OCc3ccccc3)c1)Oc1c(cc(C)cc1C(=O)NCCC(=O)N[C@@H](C)C(=O)OCc1ccccc1)S2`, the GI50 in the test with NCI-H226 is > 100 µM (inactive); in the test with HCT-15, more than 100 µM; in the test with UACC-62, > 100 µM (inactive); in the test with SF-295 it was > 100 µM (inactive); with Malme-3M, > 100 µM (inactive); in the test with UACC-257 it was > 100 µM (inactive). Moreover, the GI50 in the test with SR was 43.3 µM (inactive); in the test on SK-OV-3 it was 80 µM (inactive); with NCI-H23 it was > 100 µM (inactive); in the test on OVCAR-5, > 100 µM (inactive); with SK-MEL-2 it was > 100 µM (inactive); in the test with CAKI-1, > 100 µM (inactive). Also, the GI50 was 38.5 µM (inactive) with RXF 393; > 100 µM (inactive) in the test with SN12C; > 100 µM (inactive) in the test with DU-145; > 100 µM (inactive) in the test on 786-0; > 100 µM (inactive) in the test with MDA-MB-231.
On to `FC1C2=C(SC1(F)F)C1CCC2C1` (stereo unspecified), for which the GI50 in the test with NCI-H226 is > 100 µM (inactive); in the test on HCT-15 it was more than 100 µM; in the test on UACC-62, > 100 µM (inactive); with SF-295 it was > 100 µM (inactive); in the test with Malme-3M it was > 100 µM (inactive); with UACC-257, > 100 µM (inactive). In addition, the GI50 in the test with SR, with SK-OV-3, in the test with NCI-H23, in the test with OVCAR-5, in the test with SK-MEL-2 and in the test with CAKI-1 was > 100 µM (inactive) each time. Further, the GI50 in the test on RXF 393, in the test on TK-10, in the test on DU-145, with 786-0 and in the test with MDA-MB-231 was > 100 µM (inactive) in each case.
Consider `COC(=O)/C=C\C(C#N)(C#N)/N=C/c1ccsc1`, for which the GI50 was 20.4 µM (inactive) in the test on NCI-H226; 1.55 µM in the test with HCT-15; 4.8 µM (inactive) in the test on UACC-62; 13.3 µM (inactive) in the test on SF-295; 1.51 µM (inactive) with Malme-3M; 4.45 µM (inactive) in the test on UACC-257. Moreover, the GI50 with SR is 0.214 µM (active); in the test on SK-OV-3, 17.2 µM (inactive); in the test on NCI-H23, 7.45 µM (inactive); with OVCAR-5, 7.24 µM (inactive); with SK-MEL-2, 16.9 µM (inactive); in the test with CAKI-1, 2.26 µM (inactive). Further, the GI50 with RXF 393 is 1.78 µM (inactive); with SN12C it was 5.33 µM (inactive); in the test on TK-10, 2.36 µM (inactive); in the test on DU-145, 8.05 µM (inactive); in the test on SK-MEL-28, 2.83 µM (inactive); in the test on 786-0, 1.37 µM (inactive). In the test on MDA-MB-231, the GI50 is 5.73 µM (inactive).
With `O=C1CCC2C(O)c3cc4c(cc3C(c3ccc5c(c3)OCO5)N12)OCO4` (stereo unspecified), the GI50 in the test on NCI-H226 was 67.9 µM (inactive); in the test with HCT-15, more than 100 µM; in the test with UACC-62, > 100 µM (inactive); with SF-295 it was 49.2 µM (inactive); with Malme-3M it was > 100 µM (inactive); with UACC-257, > 100 µM (inactive). Moreover, the GI50 in the test with SR was > 100 µM (inactive); in the test with SK-OV-3, 40 µM (inactive); in the test on NCI-H23, > 100 µM (inactive); with OVCAR-5 it was > 100 µM (inactive); in the test on SK-MEL-2, > 100 µM (inactive); with CAKI-1, > 100 µM (inactive). The GI50 with SN12C is 76 µM (inactive); in the test with TK-10, > 100 µM (inactive); with DU-145, > 100 µM (inactive); in the test on SK-MEL-28, > 100 µM (inactive); in the test on 786-0 it was 82 µM (inactive); in the test on SF-539, 80 µM (inactive). For the same compound, the GI50 in the test on MDA-MB-231 was > 100 µM (inactive).
Consider `CC(=O)Nc1ccc2c(C)c3c(nc2n1)[nH]c1ccccc13`, for which the GI50 in the test on NCI-H226 is 23.4 µM (inactive); with HCT-15, 15.5 µM; in the test on UACC-62, 22.6 µM (inactive); in the test on SF-295 it was 34.3 µM (inactive); in the test with UACC-257, 32.9 µM (inactive); in the test on SR, 17.6 µM (inactive). For the same compound, the GI50 is 25.2 µM (inactive) in the test on NCI-H23; 51.4 µM (inactive) with OVCAR-5; 22.6 µM (inactive) in the test on SK-MEL-2; 24 µM (inactive) with CAKI-1; 33.6 µM (inactive) with RXF 393; 30.5 µM (inactive) with SN12C. Further, the GI50 is 55.5 µM (inactive) in the test on TK-10; 33.6 µM (inactive) in the test on DU-145; 35.4 µM (inactive) with 786-0; 57.3 µM (inactive) in the test on SF-539; 35.1 µM (inactive) in the test on MDA-MB-231.
